# From patent US20100099770A1, “METHOD FOR TREATING DIABETIC PERIPHERAL NEUROPATHIC PAIN” (SCHWARZ PHARMA AG, priority 2001, published 2010)
# Entries after “also recorded” stand apart in the source; their conditions may differ. Marks after values point to notes of the source that are not given here.
# Legend:
# [1] = tested on: spontaneous pain induced by unilateral chronic constriction injury; experiment: Chronic constriction injury (CCI, Bennett model): spontaneous pain; assay type: in vivo, rat; conditions: for Spontaneous nociception, weighted pain score, Post-op + Drug: ligated paw, score 0-5, ±SEM
# Experimental: (§1) The effectiveness of harkoseride in reducing spontaneous chronic pain, mechanical allodynia, and thermal hyperalgesia was tested using the chronic constriction injury (CCI) model of peripheral neuropathy, one of the best characterised in vivo animal models used to study chronic pain due to peripheral nerve injury. In this model, loose ligatures are placed around the sciatic nerve, which produces axonal swelling and a partial deafferentation manifested as a significant but incomplete loss of axons in the distal portion of the peripheral nerve. One of the prominent behaviours seen following sciatic nerve ligation is the appearance of hind paw guarding, thought to be an indication of an ongoing spontaneous chronic pain. Support for this idea is derived from reports of increased spinal cord neural activity, and increased spontaneous neuronal discharge in spinothalamic tract neurons and in the ventrobasal thalamus in the absence of overt peripheral stimulation. In addition to the appearance of spontaneous pain behaviours, several abnormalities in stimulus evoked pain occur as a result of CCI, including thermal hyperalgesia and mechanical allodynia. The development of these abnormal stimulus-evoked pains has also been reported as occurring in areas outside the territory of the damaged nerve, areas innervated by uninjured nerves.
# (§2) Behavioural tests for spontaneous pain, thermal hyperalgesia, and mechanical allodynia were conducted to evaluate different components of neuropathic pain. Baseline data for each test was collected prior to any experimental procedure; in addition, all animals were tested for the development of chronic pain behaviours 13-25 days after CCI surgery 1 day prior to the day of vehicle (0.04 ml sterile water/10 g body weight) or drug administration and after vehicle/drug administration. The sequence of the tests was (1) spontaneous pain-related behaviour (2) mechanical allodynia, (3) thermal hyperalgesia in order to minimise the influence of one test on the result of the next. The testing procedures and results are presented separately for each aspect of chronic pain. Either 0 (vehicle, 0.04 ml/10 g body weight), 5, 10, 20 or 40 mg/kg of SPM 927 (n=7-23/group) was administered i.p. 15 minutes before the first behavioural test.
# Spontaneous pain (ongoing pain without an apparent external stimulus) of the ligated paw was assessed for 5 min following a 10 min acclimation period by use of a rating score (weighted behaviour score scaled 0-5).
# [2] = tested on: chronic constriction injury-induced thermal hyperalgesia; experiment: CCI model: thermal hyperalgesia (radiant heat withdrawal latency); assay type: in vivo, rat; conditions: for Thermal hyperalgesia, withdrawal latency, Post-op + Drug: ligated hind paw, ±SEM
# Experimental: as §1, §2
# Thermal hyperalgesia was assessed by means of withdrawal latency in response to radiant heat applied to the subplantar surface of the ligated rat hind paw. As compared to the baseline latency (s), a significant decrease in the (postoperative) latency of foot withdrawal in response to the thermal stimulus was interpreted as indicating the presence of thermal hyperalgesia following chronic constriction injury.
# [3] = tested on: mechanical allodynia induced by unilateral nerve ligation; experiment: CCI model: mechanical allodynia (electronic Von Frey); assay type: in vivo, rat; conditions: for Mechanical allodynia, pressure to elicit foot withdrawal, Post-op + Drug: ligated hind paw, ±SEM
# Experimental: as §1, §2
# Mechanical sensitivity and allodynia of the ligated rat hind paw was quantified by brisk foot withdrawal in response to normally innocuous mechanical stimuli as described previously. Responsiveness to mechanical stimuli was tested with a calibrated electronic Von Frey pressure algometer connected to an online computerised data collection system. A significant decrease in the post operative compared to baseline pressure (g/mm^2) necessary to elicit a brisk foot withdrawal in response to this mechanical stimulus is interpreted as mechanical allodynia.
# [4] = tested on: Carrageenan-induced mechanical hyperalgesia; experiment: Carrageenan-induced mechanical hyperalgesia, paw pressure (Randall-Sellito) test; assay type: in vivo, rats; conditions: for nociceptive threshold: inflamed paw, 3 h after carrageenan
# Experimental: Carrageenan-induced mechanical hyperalgesia in rats was induced by subplantar injection of a 0.1 ml of a 2% carrageenan suspension and measured 3 h afterwards by the paw pressure (Randall-Sellito) test.
# (§3) Drugs and experimental design: SPM 927 and GBP were suspended in 1% methylcellulose and administered i.p. at doses of 10 mg/kg, 20 mg/kg and 40 mg/kg. Pre-treatment time was 30 min before pain measurement. One group of animals served as controls and consequently received an injection of solvent (10 ml/kg) and another group of animals received a reference compound (Carrageenan test: 10 mg/kg indomethacin; Formalin test: 10 mg/kg morphine). Each compound was tested in a separate experiment and each experiment included a control and a reference group. 10 rats per group were used in the Carrageenan test and 6 mice per group in the formalin test.
# [5] = tested on: formalin-induced nociception (paw licking); experiment: Subchronic inflammatory nociception in mice (formalin test); assay type: in vivo; conditions: for nociceptive threshold, early phase: 0-5 min after formalin (acute pain); for nociceptive threshold, late phase: 20-30 min after formalin (subchronic inflammatory pain); for effect on formalin-induced nociceptive response (in words): 10, 20, 40 mg/kg i.p.
# Experimental: Subchronic inflammatory nocicpetion in mice was induced by the subplantar injection of formalin (0.02 ml of a 5% solution). Nociceptive behaviour (paw licking) was measured and quantified between 0 and 5 min (acute pain) and between 20 and 30 min (subchronic inflammatory pain) after formalin.
# as §3
# [6] = tested on: neuropathic pain (CHUNG), tactile stimulation; experiment: Neuropathic pain (CHUNG) test, tactile stimulation on lesioned paw; assay type: in vivo, rat; conditions: for FORCE INDUCING PAW-WITHDRAWAL, % change: compared with lesioned control; for FORCE INDUCING PAW-WITHDRAWAL, mean ± s.e.m.: lesioned paw
# Source text: (§4) The following Tables 8 and 9 show the effects of harkoseride (hereinafter referred tows SPM 927), carbamazepine, levetiracetam, gabapentin and morphine in the neuropathic pain (CHUNG) test in the rat. Eight (8) rats per group were used.
# [7] = tested on: neuropathic pain (CHUNG), thermal stimulation; experiment: Neuropathic pain (CHUNG) test, thermal stimulation on lesioned paw; assay type: in vivo, rat; conditions: for PAW-WITHDRAWAL LATENCY, % change: compared with lesioned control; for PAW-WITHDRAWAL LATENCY, mean ± s.e.m.: lesioned paw
# Source text: as §4
smiles,measurement,setting,value
"COC[C@@H](NC(C)=O)C(=O)NCc1ccccc1 [SPM 927, (R)-2-Acetamido-N-benzyl-3-methoxypropionamide]","Spontaneous nociception, weighted pain score, Post-op + Drug",[1]; 5 mg/kg i.p.,1.8 ± 0.18
same,"Spontaneous nociception, weighted pain score, Post-op + Drug",[1]; 10 mg/kg i.p.,1.5 ± 0.11
same,"Spontaneous nociception, weighted pain score, Post-op + Drug",[1]; 20 mg/kg i.p.,0.9 ± 0.14
same,"Spontaneous nociception, weighted pain score, Post-op + Drug",[1]; 40 mg/kg i.p.,0.8 ± 0.28
same,effect on level of spontaneous pain (in words),[1]; 5-40 mg/kg i.p.,did not change
same,"Thermal hyperalgesia, withdrawal latency, Post-op + Drug",[2]; 5 mg/kg i.p.,9.2 ± 0.98 s
same,"Thermal hyperalgesia, withdrawal latency, Post-op + Drug",[2]; 10 mg/kg i.p.,8.1 ± 0.59 s
same,"Thermal hyperalgesia, withdrawal latency, Post-op + Drug",[2]; 20 mg/kg i.p.,9.7 ± 0.96 s
same,"Thermal hyperalgesia, withdrawal latency, Post-op + Drug",[2]; 40 mg/kg i.p.,10.2 ± 0.75 s
same,effect on thermal hyperalgesia (in words),[2]; 5-40 mg/kg i.p.,dose dependently reduced
same,dose at which the maximum effect on thermal hyperalgesia is seen,[2]; i.p.,20 mg/kg
same,"Mechanical allodynia, pressure to elicit foot withdrawal, Post-op + Drug",[3]; 5 mg/kg i.p.,21.8 ± 2.34 g/mm^2
same,"Mechanical allodynia, pressure to elicit foot withdrawal, Post-op + Drug",[3]; 10 mg/kg i.p.,29.2 ± 2.85 g/mm^2
same,"Mechanical allodynia, pressure to elicit foot withdrawal, Post-op + Drug",[3]; 20 mg/kg i.p.,39.6 ± 3.62 g/mm^2
same,"Mechanical allodynia, pressure to elicit foot withdrawal, Post-op + Drug",[3]; 40 mg/kg i.p.,43.0 ± 5.48 g/mm^2
same,effect on intensity of mechanical allodynia (in words),[3]; 5-40 mg/kg i.p.,dose dependently reduced
same,nociceptive threshold,[4]; 10 mg/kg i.p. 30 min before measurement,324 ± 15^b
same,nociceptive threshold,[4]; 20 mg/kg i.p. 30 min before measurement,426 ± 24^b
same,nociceptive threshold,[4]; 40 mg/kg i.p. 30 min before measurement,444 ± 13^b
same,effect on Carrageenan-induced mechanical hyperalgesia (in words),"[4]; 10, 20, 40 mg/kg i.p.",full reversal; also recorded: comparable to that of the reference compound Indomethacin
same,"nociceptive threshold, early phase",[5]; 10 mg/kg i.p.,67 ± 15 s
same,"nociceptive threshold, late phase",[5]; 10 mg/kg i.p.,58 ± 16^a s
same,"nociceptive threshold, early phase",[5]; 20 mg/kg i.p.,69 ± 8 s
same,"nociceptive threshold, late phase",[5]; 20 mg/kg i.p.,128 ± 16 s
same,"nociceptive threshold, early phase",[5]; 40 mg/kg i.p.,8 ± 8^a s
same,"nociceptive threshold, late phase",[5]; 40 mg/kg i.p.,17 ± 17^a s
same,effect on formalin-induced nociceptive response (in words),[5],near complete reversal
same,effect on formalin-induced nociceptive response (in words),[5]; listed as SPM-927,dose dependently suppressed
same,"FORCE INDUCING PAW-WITHDRAWAL, % change",[6]; 8 mg/kg i.p. -30 min,+56% (b)
same,"FORCE INDUCING PAW-WITHDRAWAL, mean ± s.e.m.",[6]; 8 mg/kg i.p. -30 min,27.2 ± 4.9 NS (b) g
same,"FORCE INDUCING PAW-WITHDRAWAL, % change",[6]; 16 mg/kg i.p. -30 min,+40% (b)
same,"FORCE INDUCING PAW-WITHDRAWAL, mean ± s.e.m.",[6]; 16 mg/kg i.p. -30 min,24.4 ± 3.0 NS (b) g
same,"FORCE INDUCING PAW-WITHDRAWAL, % change",[6]; 32 mg/kg i.p. -30 min,+116% (b)
same,"FORCE INDUCING PAW-WITHDRAWAL, mean ± s.e.m.",[6]; 32 mg/kg i.p. -30 min,37.6 ± 6.1 (b) g
same,comparison of effects in the CHUNG test (in words),"[6]; tactile and thermal stimulation, i.p.","minimum comparable, but usually more potent than the reference compounds"
same,"PAW-WITHDRAWAL LATENCY, % change",[7]; 8 mg/kg i.p. -30 min,+60% (b)
same,"PAW-WITHDRAWAL LATENCY, mean ± s.e.m.",[7]; 8 mg/kg i.p. -30 min,26.1 ± 5.4 NS (b) sec
same,"PAW-WITHDRAWAL LATENCY, % change",[7]; 16 mg/kg i.p. -30 min,+3% b)
same,"PAW-WITHDRAWAL LATENCY, mean ± s.e.m.",[7]; 16 mg/kg i.p. -30 min,16.8 ± 4.5 NS (b) sec
same,"PAW-WITHDRAWAL LATENCY, % change",[7]; 32 mg/kg i.p. -30 min,+29% (b)
same,"PAW-WITHDRAWAL LATENCY, mean ± s.e.m.",[7]; 32 mg/kg i.p. -30 min,21.1 ± 5.6 NS (b) sec
